From article PMC5634495 (Scientific Reports, 2017)

B1: RV-183L (peptide)
peptide: YTIWMPENLRLGTSCDIFTNSRGKRASKG
B2: RV-183P (peptide)
peptide: YTIWMPENPRLGTSCDIFTNSRGKRASKG

How the values were obtained:
[1] = target: α4β2 nAChR (Homo sapiens, UniProt P17787+P43681); experiment: cell-based
[2] = tested on: nAChR-mediated pharyngeal pumping in C. elegans (nAChR EAT-2); set-up: species or system Caenorhabditis elegans; settings: in vivo
[3] = tested on: locomotor activity of mice; settings: mouse, in vivo
[4] = target: T1, acetylcholine binding protein derived from Lymnaea stagnalis (L-AChBP) (Lymnaea stagnalis, UniProt P58154 20-229); experiment: SPR; settings: both partners purified
T1 construct: also called Synthetic Lymnaea stagnalis AChBP
T1 sequence (P58154 20-229): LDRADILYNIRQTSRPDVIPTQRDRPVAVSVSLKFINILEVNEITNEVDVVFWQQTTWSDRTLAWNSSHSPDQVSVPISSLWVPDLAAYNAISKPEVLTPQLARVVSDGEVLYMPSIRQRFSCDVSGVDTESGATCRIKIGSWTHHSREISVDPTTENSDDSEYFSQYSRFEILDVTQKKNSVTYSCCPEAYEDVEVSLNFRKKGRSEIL

Chain of α4β2 nAChR (P43681 29-627 limits assumed): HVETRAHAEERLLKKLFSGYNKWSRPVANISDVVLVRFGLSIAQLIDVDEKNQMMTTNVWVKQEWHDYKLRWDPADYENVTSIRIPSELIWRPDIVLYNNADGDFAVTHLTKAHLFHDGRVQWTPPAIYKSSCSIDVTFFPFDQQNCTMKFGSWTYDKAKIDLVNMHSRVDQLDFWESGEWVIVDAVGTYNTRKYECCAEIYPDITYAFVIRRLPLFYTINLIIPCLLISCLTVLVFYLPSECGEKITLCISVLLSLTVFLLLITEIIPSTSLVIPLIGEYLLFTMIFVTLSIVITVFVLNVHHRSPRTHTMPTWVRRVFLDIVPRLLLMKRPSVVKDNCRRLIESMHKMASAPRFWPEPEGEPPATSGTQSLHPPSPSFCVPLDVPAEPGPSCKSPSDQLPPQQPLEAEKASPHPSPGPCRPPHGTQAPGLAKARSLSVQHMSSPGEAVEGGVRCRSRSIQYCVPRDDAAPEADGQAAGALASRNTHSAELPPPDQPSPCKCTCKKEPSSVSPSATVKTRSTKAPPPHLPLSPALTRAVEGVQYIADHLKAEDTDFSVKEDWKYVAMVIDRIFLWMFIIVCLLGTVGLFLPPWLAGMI
Chain of α4β2 nAChR (P17787 26-502 limits assumed): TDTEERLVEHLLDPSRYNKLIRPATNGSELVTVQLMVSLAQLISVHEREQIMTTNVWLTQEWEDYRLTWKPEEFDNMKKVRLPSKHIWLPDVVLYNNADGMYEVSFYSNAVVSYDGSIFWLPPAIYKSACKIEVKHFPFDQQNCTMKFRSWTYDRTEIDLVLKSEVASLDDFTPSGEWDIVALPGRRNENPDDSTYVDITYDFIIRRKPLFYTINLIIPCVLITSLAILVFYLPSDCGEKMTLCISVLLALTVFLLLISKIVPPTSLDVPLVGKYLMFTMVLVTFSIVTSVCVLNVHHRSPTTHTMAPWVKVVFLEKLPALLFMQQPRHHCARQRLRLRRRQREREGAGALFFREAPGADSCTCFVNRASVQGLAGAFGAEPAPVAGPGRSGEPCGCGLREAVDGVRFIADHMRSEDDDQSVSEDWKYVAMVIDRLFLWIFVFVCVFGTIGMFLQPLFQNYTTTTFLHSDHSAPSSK

| Molecule | IC50 [1] | average pharyngeal pumping frequency (in words) [2] | worms in which pharyngeal pumping was absent [2] | locomotor activity in novel-environment behaviour test (in words) [3] | binding result [4] |
| --- | --- | --- | --- | --- | --- |
| CC[C@H](C)[C@H](NC(=O)[C@H](CC(=O)O)NC(=O)[C@H](CS)NC(=O)[C@H](CO)NC(=O)[C@@H](NC(=O)CNC(=O)[C@H](CC(C)C)NC(=O)[C@H](CCCNC(=N)N)NC(=O)[C@H](C)NC(=O)[C@H](CC(N)=O)NC(=O)[C@H](CCC(=O)O)NC(=O)[C@@H]1CCCN1C(=O)[C@H](CCSC)NC(=O)[C@H](Cc1c[nH]c2ccccc12)NC(=O)[C@@H](NC(=O)[C@@H](NC(=O)[C@@H](N)Cc1ccc(O)cc1)[C@@H](C)O)[C@@H](C)CC)[C@@H](C)O)C(=O)N[C@@H](Cc1ccccc1)C(=O)N[C@H](C(=O)N[C@@H](CC(N)=O)C(=O)N[C@@H](CO)C(=O)N[C@@H](CCCNC(=N)N)C(=O)NCC(=O)N[C@@H](CCCCN)C(=O)N[C@@H](CCCNC(=N)N)C(=O)N[C@@H](C)C(=O)N[C@@H](CO)C(=O)N[C@@H](CCCCN)C(=O)NCC(=O)O)[C@@H](C)O [RV-183A] | 465 to 2620 µM | significantly reduced | six out of seven | increased locomotor activity | – |
| CC[C@H](C)[C@H](NC(=O)[C@H](CC(=O)O)NC(=O)[C@H](CS)NC(=O)[C@H](CO)NC(=O)[C@@H](NC(=O)CNC(=O)[C@H](CC(C)C)NC(=O)[C@H](CCCNC(=N)N)NC(=O)[C@@H]1CCCN1C(=O)[C@H](CC(N)=O)NC(=O)[C@H](CCC(=O)O)NC(=O)[C@@H]1CCCN1C(=O)[C@H](CCSC)NC(=O)[C@H](Cc1c[nH]c2ccccc12)NC(=O)[C@@H](NC(=O)[C@@H](NC(=O)[C@@H](N)Cc1ccc(O)cc1)[C@@H](C)O)[C@@H](C)CC)[C@@H](C)O)C(=O)N[C@@H](Cc1ccccc1)C(=O)N[C@H](C(=O)N[C@@H](CC(N)=O)C(=O)N[C@@H](CO)C(=O)N[C@@H](CCCNC(=N)N)C(=O)NCC(=O)N[C@@H](CCCCN)C(=O)N[C@@H](CCCNC(=N)N)C(=O)N[C@@H](C)C(=O)N[C@@H](CO)C(=O)N[C@@H](CCCCN)C(=O)NCC(=O)O)[C@@H](C)O [RV-183P] | 185 to 314 µM | – | – | increased locomotor activity | – |
| GSEPKWYRTKDRASPGSNFTITLMGRCNI [Scrambled, reference compound] | – | – | – | No difference | – |
| B1 | – | – | – | – | binds |
| B2 | – | – | – | – | binds |
